Results: US11730714B2, “Compounds for the treatment of neuromuscular disorders” (NMD PHARMA A/S, priority 2017, dated 2023)

Columns and labels:
Lewis rats = assay: In situ muscle contractile characteristics: isometric hindlimb force in rats under Cisatracurium infusion; type: in vivo, rat; details: 20 mg/kg i.v.
Method: Isometric hindlimb force was measured in 12-week old female Lewis rats in the presence and absence of compound.
Rats were placed under anesthesia with isoflurane (2-4%), intubated and subsequently connected to a micro ventilator (Microvent 1, Hallowell EMC, US). Two stimulation electrodes were inserted through the skin to stimulate the sciatic nerve. A small incision was made proximal to the ankle, to expose the Achilles tendon, which was tied by cotton string, and connected to a force transducer (Fort250, World Precision Instruments) with adjustable position (Vernier control). The Achilles tendon was then cut distal to the attached cotton string. […]
Muscle contractile properties were assessed by applying an electrical current (under supramaximal voltage conditions) to the nerve and recording the force generated by the muscle. The muscle was stretched until maximal force was obtained, when assessed by 2 Hz stimulation. Isometric force was measured every 30 seconds at 12 Hz (Twitch), 10 pulses, and at every 5 minutes at 80 Hz (Tetanic) for 1 second (80 pulses). […] The effect of test article was assessed on its ability to increase force generated from the stimulation pattern applied. The effect was assessed in the ability to increase force per se (tetanic, 80 Hz, stimulation), and the ratio between individual twitch peaks (12 Hz stimulation). […]

CIC-1 channels = target: T1, CIC-1 channels (Rattus norvegicus, UniProt P35524); assay: Electrophysiological measurement of compound inhibition of CIC-1 in rat muscle (Gm, EC50); type: cell-based; details: rat soleus muscle fibres, three micro-electrode Gm measurement; read-out: EC50 (inhibition of ClC-1 ion channel, Gm)
T1 construct: Gm was measured in individual fibres of whole rat soleus muscles; from tissue; host or cells: soleus muscle of adult (12-14 week old) Wistar rats
T1 sequence (P35524 1-994): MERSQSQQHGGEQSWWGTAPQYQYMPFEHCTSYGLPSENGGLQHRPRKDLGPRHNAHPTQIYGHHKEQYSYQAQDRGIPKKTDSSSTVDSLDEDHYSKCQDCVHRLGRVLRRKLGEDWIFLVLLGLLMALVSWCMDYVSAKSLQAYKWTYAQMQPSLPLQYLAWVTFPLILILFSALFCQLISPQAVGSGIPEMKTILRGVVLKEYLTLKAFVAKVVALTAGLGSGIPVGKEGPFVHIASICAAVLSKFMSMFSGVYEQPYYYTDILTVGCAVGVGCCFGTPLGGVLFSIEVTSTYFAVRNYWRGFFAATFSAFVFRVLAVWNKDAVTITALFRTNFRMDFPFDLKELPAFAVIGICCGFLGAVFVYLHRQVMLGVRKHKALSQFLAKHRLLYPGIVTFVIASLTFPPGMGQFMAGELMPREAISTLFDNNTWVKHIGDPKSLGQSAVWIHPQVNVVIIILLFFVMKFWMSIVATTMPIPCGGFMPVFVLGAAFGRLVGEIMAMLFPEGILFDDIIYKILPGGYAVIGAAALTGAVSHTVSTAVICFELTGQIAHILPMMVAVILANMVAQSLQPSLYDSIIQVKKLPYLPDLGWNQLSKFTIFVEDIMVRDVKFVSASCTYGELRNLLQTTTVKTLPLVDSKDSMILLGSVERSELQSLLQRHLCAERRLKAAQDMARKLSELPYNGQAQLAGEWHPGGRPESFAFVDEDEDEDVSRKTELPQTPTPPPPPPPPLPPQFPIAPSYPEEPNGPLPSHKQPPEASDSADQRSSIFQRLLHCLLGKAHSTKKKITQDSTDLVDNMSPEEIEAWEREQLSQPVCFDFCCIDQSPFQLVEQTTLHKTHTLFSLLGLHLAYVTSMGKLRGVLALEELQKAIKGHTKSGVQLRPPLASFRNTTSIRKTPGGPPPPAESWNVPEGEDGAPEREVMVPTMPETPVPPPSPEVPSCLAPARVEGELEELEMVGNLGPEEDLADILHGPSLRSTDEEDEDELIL

isolated rat muscle = assay: Measurement of force in an in vitro model: isolated rat soleus nerve-muscle preparation, 115 nM tubocurarine; type: cell-based; details: 50 μM compound, 40 mins exposure, 115 nM tubocurarine, isolated rat soleus nerve-muscle preparation
Method: FIGS. 12A-12B. […] Force traces from a representative muscle stimulated to contract in 1) control condition before addition of neuromuscular blocking agent, 2) the force response to stimulation after 90 minutes incubation with Tubocurarine. […] The traces presented in FIG. 12A (1, 2, 3), correspond to the dotted lines in FIG. 12B, respectively.
Recovery of force is quantified as the percentage of the force prior to tubocurarine that is recovered by the compound.
The current invention relates to compounds that inhibit CIC-1 ion channels and increase muscle excitability and thereby improve muscle function in clinical conditions where muscle activation is failing. Such conditions result in loss of contractile function of skeletal muscle, weakness and excessive fatigue. […]
Experimentally, soleus muscles from 4-5 wk old rats were isolated with the motor nerve remaining attached. […] Stimulation of the motor nerve led to activation of the muscle fibres and ensuing force production that was recorded.
After mounting the nerve-muscle preparation in the experimental setup, the contractile function of the muscle was initially assessed under the control conditions (FIG. 2A). […] To quantify the ability of the compound to restore force the percentage of the initial force that was restored was determined after 40 mins of compound exposure (FIG. 2B) and the point increase is reported in Table 8.

rat soleus muscles = type: cell-based; details: 10 and 25 μM C8; 1 μM μ-conotoxin GiiiB; vs control conditions
[1] = Pharmacokinetic analysis of C8 in rats, single I.P. dose; type: in vivo, rat; details: one-bolus I.P. injection
Method: This part of the study was performed by Pipeline Biotech A/S (Spørring, Denmark). […] Plasma concentrations (free and bound) were determined by OnTarget Chemistry (Uppsala, Sweden, Project No.: PB243-001).
Before conducting in vivo experiments with animal models of myasthenia gravis, some pharmacokinetic details were obtained for C8 in response to one-bolus I.P. injection.

isolated human muscles = type: cell-based; details: 150 μM C8; elevated extracellular K+ and low dose TTX

## (2S)-2-(4-bromophenoxy)(2-^2H)butanoic acid [Compound A-60]
Lewis rats; 12 Hz stimulation
  average increase in twitch peaks: 18.5%
Lewis rats; 80 Hz stimulation
  average increase in tetanic force: 52.7%
CIC-1 channels
  EC50: 7.5 ± 1 µM
Isolated rat muscle
  Point increase (%) of initial force that was restored: 62%

## C[C@H](Oc1ccc(Br)cc1)C(=O)O [Compound C8, (2S)-2-(4-bromophenoxy)propanoic acid]
Rat soleus muscles
  EPP amplitude: significantly larger EPPs
[1]
  Cl_obs: 48.69 mL/h
  VD_obs: 259.62 mL
Isolated human muscles
  contractile force: markedly recovery
